Experimental findings from patent publication US20240226211A9, “SEAWEED EXTRACTS, ISOLATED COMPOUNDS, AND METHODS OF TREATMENT” (University of Florida Research Foundation, Incorporated, priority 2017, published 2024) are described below.

Series [1] has as its system ARE-luciferase reporter (human NQO1-ARE) in IMR-32 cells. Nature of the series: ARE-luc reporter assay in IMR-32 cells. The format is cell-based. Conditions: IMR-32 cell line. The text has this: The ARE-luciferase reporter construct (ARE-luc) contains the core sequence of human NQO1-ARE1. The mock plasmid (pcDNA3-mRFP) was purchased from Addgene (plasmid 13032). The following plasmids were reported by Zhang et a/.2003 [Zhang, D. D., and Hannink, M. (2003) Distinct cysteine residues in Keap1 are required for Keap1-dependent ubiquitination of Nrf2 and for stabilization of Nrf2 by chemopreventive agents and oxidative stress. Mol. Cell. Biol. 23, 8137-8151]. The Keap1-CBD plasmid carries the entire open reading frame (ORF) of human Keap1 fused to the chitin binding domain (CBD) of the Bacillus circulans chitinase A1 gene upstream of the Keap1 stop codon. Oligonucleotide-directed mutagenesis was used to generate the Keap1-C151S-CBD and Keap1-C288S-CBD plasmids. The HA-Cul3 plasmid was constructed by fusing an N-terminal hemagglutinin (HA) tag with a cDNA sequence coding for amino acids 1-380 of human Cul3 gene. The Gal4-Neh2 expression vector contains the codons for the first 97 amino acids (Neh2 domain) of human Nrf2 fused to the ORF of the Gal4 DNA-binding domain
An ARE-luciferase reporter plasmid and CMV-GFP plasmid (to monitor transfection efficiency) were co-transfected into a human androgen-sensitive prostate cancer cell line, LNCaP (6×10^4 cells/well), and a human neuroblastoma cell line, IMR-32 (3×10^4 cells/well), using Fugene® HD (Roche Diagnostics) in 96-well format. […] J Biol Chem. 2002; 277:388-394; Lee J M, Hanson J M, Chu W A, Johnson J A. Phosphatidylinositol 3-kinase, not extracellular signal-regulated kinase, regulates activation of the antioxidant-responsive element in IMR-32 human neuroblastoma cells. […] After 24 hours of incubation, cells were treated with extracts from Cymopolia barbata, a negative control (DMSO, 1%, v/v), and a positive control ([…] sulforaphane, SF, and tert-butylhydroquinone, tBHQ, respectively.) 24 hours post-treatment, luciferase activity was detected using BriteLite detection reagent (PerkinElmer). […]

Series [2] deals with nitric oxide (NO) production in RAW264.7 cells. Nature of the series: NO assay in RAW264.7 cells. The format is cell-based, mouse. Conditions: 10 μM Compound 1, IFN-γ. How it is done: RAW264.7 cells (2×10^4 cells/well), wild-type (8×10^3 cells/well), Nrf2−/−(7×10^3 cells/well), and Keap1−/−(5×10^3 cells/well) MEF were seeded into 96-well format. Cells were pretreated for 1 h with a solvent control (DMSO, 1%, v/v) or serial dilutions of isolated compounds or extracts before addition of LPS (1 μg/mL) or IFN-γ (10 ng/mL). […] In each case, 50 μL of the media was combined with 50 μL Griess Reagent (Promega). Absorbance was measured at 540 nm and compared with a calibration curve generated using the provided […] standard.

For series [3], the system named is Nqo1. Nature of the series: Nqo1 activity assay in MEFs. The series is classed as cell-based, murine. As for the experimental part:
Wild-type (8×10^3 cells/well), Nrf2−/− (8×10^3 cells/well), and Keap1−/− (4×10^3 cells/well) MEFs were seeded into a 96-well format and incubated overnight at 37° C. Cells were treated with a solvent control (DMSO, 1%, v/v) or serial dilutions of isolated compounds or extracts for 40 hours.

In series [4] the test system is zebrafish. Put plainly: Phenotypic toxicity in zebrafish. The series is classed as in vivo, Danio rerio. The settings on record: embryos and adults.
The nature of series [5]: Toxicity observation in mice after oral gavage. The series is classed as in vivo. The settings on record: oral gavage 3 consecutive days. How it is done: The experiments were approved by the Institutional Animal Care & Use Committee at the University of Florida. Groups of 5-10 wild type male mice (C57BL/6J) were used for each treatment type. The mice were maintained under approved standard conditions. Cymopol (1) and the non-polar extract (NP extract) were dissolved in Chremophor EL (Sigma) containing 10% DMSO and administered via oral gavage for 3 consecutive days, with 24 h between each treatment. […] 12 h following the final treatment, the mice were euthanized in 100% CO2. The tissues were harvested immediately, frozen on dry ice, and kept at −80° C. until analyzed.

Series [6] relates to Staphylococcus aureus. Nature of the series: Preliminary antibacterial testing. The series is classed as cell-based.

With `CC(C)=CCC/C(C)=C/Cc1cc(O)c(Br)cc1O` [Compound 1, (E)-2-bromo-5-(3,7-dimethylocta-2,6-dien-1-yl)benzene-1,4-diol], the “activation of ARE-luc” value in series [1] was “most active”. In series [2], the “reduction in levels of NO” value is listed as above 96%. In series [3] (each MEF cell type relative to DMSO control), the Nqo1 enzymatic activity entry was “induce Nqo1 enzymatic activity in a dose-dependent manner”. In series [3] (high concentrations), the “relative Nqo1 activity, wild-type versus knockout MEFs” value is “more so in wild-type than in Nrf2 and Keap1 knockout MEFs”. Moreover, the toxicity in zebrafish entry in series [4] was “demonstrate toxicities at fairly low concentrations”. Further, in series [5], the apparent toxicity entry is recorded as “No apparent toxicity was observed”. For the same molecule, the antibacterial activity entry in series [6] was “inhibited”.
